# From patent publication US11999806B2, “Broad-spectrum polypeptide against enterovirus and application thereof” (WUHAN INSTITUTE OF VIROLOGY, CHINESE ACADEMY OF SCIENCES, priority 2018, dated 2024)
# Several values for one entry are separate records, joined by “and”; a condition that tells them apart may be missing. Identical values can stand only once. Like-named read-outs stand apart in the source and are kept apart here.
# How the values were obtained:
# CVA16 = assay: Antiviral activity against CVA16 in mice, virus copies in muscle by qRT-PCR; format: in vivo, ICR suckling mice; settings: 10 mg/kg i.p. every 12 h for 5 days vs PBS
# Text: (§1) • (1) 8 2-day-old ICR mice were randomly divided into two groups, 4 in each group.
# 3. The Procedure for Detecting the Antiviral Activity of P1 Against CVA16 in Mice is Similar as the EV71 Experiment.
# 3. The Procedure for Detecting the Antiviral Activity of CR Against CVA16 in Mice is Similar to the EV71 Experiment.
# EV71 [1] = format: cell-based, enterovirus 71; settings: EV71 0.1 MOI, RD cells, 24 h; for Virus inhibition rate (%): CCK-8
# Protocol: • (1) 293T cells were plated in a 24-well cell plate. • (2) After the cells reached 70%-80% confluence, the MEM medium containing 10% serum was replaced with a MEM medium containing 2% serum (0.5 ml/well), and 5 μl of 10^6 PFU/mL EV71 virus per well was added. • (3) After 1 hour, polypeptides P2, 3A-TAT-EP, 3A-EP-DRI and 3A-EP-PEG-PA were added at a final concentration of 0.01 μM, 0.1 μM, 1 μM, and 10 μM, respectively. • (4) Samples were collected 24 hours after virus infection, and RNA was extracted with a total RNA extraction kit. • (5) The supernatant in each well was discarded, then 350 μl of TRK Lysis Buffer was added to the well and the plate was shaken on the shaker for 5 minutes. • (6) 350 μl of 70% ethanol (DEPC-treated) was added to the well and the plate was shaken on the shaker for 5 minutes. • (7) The mixture in the well was transferred to a RNA extraction column and centrifuged at 12000 g for 1 min. • (8) The solution collected in the recovery tube was added back to the column and centrifuged at 12,000 g for 1 min. • (9) RNA washing buffer 1 was added to the column and centrifuged at 12,000 g for 30 s. • (10) RNA washing buffer 2 was added to the column and centrifuged at 12,000 g for 1 min. • (11) Step (10) was repeated once. • (12) The empty column was centrifuged at 12,000 g for 2 min to completely remove residual RNA washing buffer. • (13) 50 μl DEPC-treated water was added to the column and centrifuge at 12000 g for 2 min. • (14) 2 μl RNA sample was used according to one step qRT-PCR kit for fluorescence quantification experiment. 3. […] Each concentration was tested in triplicate. • (3) The diluted virus solution was added to the plate of step (1), 100 μL per well with the final virus concentration was 0.1 MOI. Wells without polypeptide and virus (well without treatment), wells with virus only were used as controls. • (4) The mixture of step (2) was added to the 96-well plate plated with cells in step (1) and incubated in 5% CO2 at 37° C. for 24 h. Then CCK8 kit was used to determine the inhibitory effect of the polypeptide on virus. • (5) The inhibition rate of different concentrations of polypeptides on viral infection was calculated using the following formula: OD means the value of OD450-OD630, inhibition rate=(OD well with treatment−OD well with virus only)×100%/(OD well without treatment−OD well with virus only)
# • (1) RD cells in good growth state were plated in a 96-well plate. • (2) After the cells reached 70%-80% confluence, the MEM medium containing 10% serum was replaced with a MEM medium containing 2% serum. Group without polypeptide and virus, and group with virus but without polypeptide were included as controls. The final virus concentration was 0.1 MOI. • (3) 1 h later, polypeptide CR at a final concentration of 5 μM, 2.5 μM, 1.25 μM, 0.625 μM, 0.3125 μM, and 0.15625 μM was added, respectively. Group without polypeptide and virus, and group with virus but without polypeptide were set as controls. • (4) 24 hours after virus infection, when the change in the control group with only virus was obvious, 10 μl of viable cell detection agent CCK-8 was added to each well and mixed well. • (5) The plate was incubated at 37° C. for 2 h. • (6) The absorbance value at OD450 was measured with a microplate reader. Inhibition rate of polypeptide=(OD well with treatment−OD well with virus only)×100%/(OD well without treatment−OD well with virus only), OD refers to the value of OD450-OD630.
# • (1) RD cells in good growth state were plated in a 96-well plate. • (2) After the cells reached 70%-80% confluence, the MEM medium containing 10% serum was replaced with a MEM medium containing 2% serum. Group without polypeptide and virus, and group with virus but without polypeptide were included as controls. The final virus concentration was 0.1 MOI. • (3) 1 h later, polypeptide CR at a final concentration of 2.5 μM, 1.25 μM, 0.625 μM, 0.3125 μM, and 0.15625 μM was added, respectively. […]
# EV71 [2] = assay: Antiviral activity against EV71 in mice, virus copies in hind limb muscle by qRT-PCR; format: in vivo, ICR suckling mice
# Text: as §1
structure (smiles),measurement,setting,value
N=C(N)NCCC[C@H](NC(=O)[C@H](CS)NC(=O)CNC(=O)[C@H](CO)NC(=O)CNC(=O)[C@H](CCCNC(=N)N)NC(=O)[C@H](CCCNC(=N)N)NC(=O)[C@H](CCCNC(=N)N)NC(=O)[C@H](CCC(N)=O)NC(=O)[C@H](CCCNC(=N)N)NC(=O)[C@H](CCCNC(=N)N)NC(=O)[C@H](CCCCN)NC(=O)[C@H](CCCCN)NC(=O)[C@H](CCCNC(=N)N)NC(=O)CNC(=O)[C@@H](N)Cc1ccc(O)cc1)C(=O)O [CR],"CVA16 viral load in mice, in words",CVA16,can significantly reduce the viral load of CVA16 in mice
same,Virus inhibition rate (%),EV71 [1]; 0.15625 μM,−4.346% and −7.143% and −8.595%
same,Virus inhibition rate (%),EV71 [1]; 0.625 μM,16.42% and 7.119% and 16.77%
same,Virus inhibition rate (%),EV71 [1]; 1.25 μM,50.8% and 47.5% and 45.63%
same,Virus inhibition rate (%),EV71 [1]; 2.5 μM,78.26% and 70.5% and 64.43%
same,Virus inhibition rate (%),EV71 [1]; 5 μM,74.47% and 71.5% and 69.26%
same,IC50,EV71 [1]; read-out: IC50 against EV71 by CCK8 method,1700 nM
same,"EV71 viral load in mice, in words",EV71 [2]; 10 mg/kg i.p. every 12 h for 5 days vs PBS,can significantly reduce the EV71 viral load in mice
same,Number of EV71 virus copy in muscle tissue (Copies/g),"EV71 [2]; 2-day-old ICR mice, EV71 i.p., 10 mg/kg polypeptide i.p. every 12 h for 5 days, individual animals, 10 mg/kg",1.88e+007 Copies/g and 1.122e+007 Copies/g and 1.738e+007 Copies/g and 9852432.0000 Copies/g
